Our source for the Ki values is patent publication US9732087B2, “Diamino-pyridine, pyrimidine, and pyridazine modulators of the histamine H4 receptor” (JANSSEN PHARMACEUTICA NV, priority 2008, dated 2017).

pKi: −log10 of the molar value.

human H4 receptor, sequence (Q9H3N8 whole entry): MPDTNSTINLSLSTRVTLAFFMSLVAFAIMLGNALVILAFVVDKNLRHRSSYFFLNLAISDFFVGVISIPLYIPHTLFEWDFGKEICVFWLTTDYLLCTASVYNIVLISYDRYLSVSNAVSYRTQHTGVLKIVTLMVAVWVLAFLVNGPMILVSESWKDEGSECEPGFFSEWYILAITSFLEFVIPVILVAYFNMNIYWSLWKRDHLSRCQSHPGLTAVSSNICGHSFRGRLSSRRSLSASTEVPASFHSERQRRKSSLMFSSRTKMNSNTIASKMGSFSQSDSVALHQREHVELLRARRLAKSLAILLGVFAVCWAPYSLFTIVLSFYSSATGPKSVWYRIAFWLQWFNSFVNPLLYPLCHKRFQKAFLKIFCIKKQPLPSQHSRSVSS

This assay deals with human H4 receptor (Homo sapiens (Human), UniProt Q9H3N8). In words: Binding assay on recombinant human histamine H4 receptor ([3H]histamine competition, SK-N-MC cell membranes). Conditions: membranes harvested with cell harvester; [3H]histamine 10 nM; average of results; read-out: Cell Harvester Ki. Put shortly:
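Membranes from SK-N-MC cells stably or transiently transfected with human H4 receptor, prepared by homogenization and 30,000 g centrifugation in Tris/EDTA. Bound [3H]histamine separated by rapid filtration on PEI-treated GF/C filters, washed with ice-cold Tris/EDTA, counted by scintillation. '>' values denote highest concentration tested.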
As usually defined, the pKi is the Ki on a negative log10 scale, so that one unit is a factor of ten. For `CC(C)(CO)CNc1nccc(N2CC[C@H](N)C2)n1` [Example 130, 3-({4-[(3S)-3-Aminopyrrolidin-1-yl]pyrimidin-2-yl}amino)-2,2-dimethylpropan-1-ol], the pKi is 6.07. The figure for `c1ccc(CNc2nccc(N3CCNCC3)n2)cc1` [Example 131, N-Benzyl-4-piperazin-1-ylpyrimidin-2-amine] is 6.09. The figure for `c1ccc(CCNc2nccc(N3CCNCC3)n2)cc1` [Example 132, N-(2-Phenylethyl)-4-piperazin-1-ylpyrimidin-2-amine] is 5.81.

Consider `c1cc(N2CCNCC2)nc(NC2CC3CCC2C3)n1` (stereo not shown) [Example 133, N-Bicyclo[2.2.1]hept-2-yl-4-piperazin-1-ylpyrimidin-2-amine], for which the pKi is 6.89.

With `C[C@@H]1[C@@H](Nc2nccc(N3CCNCC3)n2)C[C@H]2C[C@@H]1C2(C)C` [Example 134, 4-Piperazin-1-yl-N-[(1S,2S,3S,5R)-2,6,6-trimethylbicyclo[3.1.1]hept-3-yl]pyrimidin-2-amine], the pKi was 6.16. Turning to `CNC1CN(c2ccnc(NCCCO)n2)C1` [Example 135, 3-({4-[3-(Methylamino)azetidin-1-yl]pyrimidin-2-yl}amino)propan-1-ol], the pKi is 7.80. Turning to `CNC1CN(c2ccnc(NCC(C)(C)CO)n2)C1` [Example 136, 2,2-Dimethyl-3-({4-[3-(methylamino)azetidin-1-yl]pyrimidin-2-yl}amino)propan-1-ol], the pKi was 6.71.

Turning to `OCCCNc1nccc(N2CCNCC2)n1` [Example 137, 3-[(4-Piperazin-1-ylpyrimidin-2-yl)amino]propan-1-ol], the pKi was 5.86.

For the compound `CC(C)CNc1nccc(N2C[C@H]3CCN[C@H]3C2)n1` [Example 138, 4-[(3aR,6aR)-Hexahydropyrrolo[3,4-b]pyrrol-5(1H)-yl]-N-(2-methylpropyl)pyrimidin-2-amine], the pKi was 7.62. The figure for `c1cc(N2C[C@H]3CCN[C@H]3C2)nc(NC2CCCC2)n1` [Example 139, N-Cyclopentyl-4-[(3aR,6aR)-hexahydropyrrolo[3,4-b]pyrrol-5(1H)-yl]pyrimidin-2-amine] is 8.10; for `COCCNc1nccc(N2C[C@H]3CCN[C@H]3C2)n1` [Example 140, 4-[(3aR,6aR)-Hexahydropyrrolo[3,4-b]pyrrol-5(1H)-yl]-N-(2-methoxyethyl)pyrimidin-2-amine] it is 6.87.

For `C[C@@H](Nc1nccc(N2C[C@H]3CCN[C@H]3C2)n1)c1ccccc1` [Example 141, 4-[(3aR,6aR)-Hexahydropyrrolo[3,4-b]pyrrol-5(1H)-yl]-N-[(1R)-1-phenylethyl]pyrimidin-2-amine], the pKi was 5.63.

In the case of `Fc1ccc(CNc2nccc(N3C[C@H]4CCN[C@H]4C3)n2)cc1` [Example 142, N-(4-Fluorobenzyl)-4-[(3aR,6aR)-hexahydropyrrolo[3,4-b]pyrrol-5(1H)-yl]pyrimidin-2-amine], the pKi was 5.15. `c1cc(N2C[C@H]3CCN[C@H]3C2)nc(NC2CC2)n1` [Example 143, N-Cyclopropyl-4-[(3aR,6aR)-hexahydropyrrolo[3,4-b]pyrrol-5(1H)-yl]pyrimidin-2-amine]: the pKi is 6.57. Take `COc1ccc(CNc2nccc(N3CCNCC3)n2)cc1` [Example 144, N-(4-Methoxybenzyl)-4-piperazin-1-ylpyrimidin-2-amine]: the pKi was 5.60.

Regarding `CN[C@H]1CCN(c2ccnc(NC3CC3)n2)C1` [Example 145, N-Cyclopropyl-4-[(3S)-3-(methylamino)pyrrolidin-1-yl]pyrimidin-2-amine], the pKi was 6.03.

As to `N[C@H]1CCN(c2ccnc(NC3CC4CCC3C4)n2)C1` (stereo partly drawn) [Example 146, 4-[(3S)-3-Aminopyrrolidin-1-yl]-N-bicyclo[2.2.1]hept-2-ylpyrimidin-2-amine], the pKi is 7.47. The figure for `CNC1CN(c2ccnc(NC3CC4CCC3C4)n2)C1` (stereo not shown) [Example 147, N-Bicyclo[2.2.1]hept-2-yl-4-[3-(methylamino)azetidin-1-yl]pyrimidin-2-amine] is 8.18; for `N[C@H]1CCN(c2ccnc(NCC3CCCC3)n2)C1` [Example 149, 4-[(3S)-3-Aminopyrrolidin-1-yl]-N-(cyclopentylmethyl)pyrimidin-2-amine] it is 7.62.

For the compound `N[C@@H]1CCN(c2ccnc(NCCCC(F)(F)F)n2)C1` [Example 150, 4-[(3R)-3-Aminopyrrolidin-1-yl]-N-(4,4,4-trifluorobutyl)pyrimidin-2-amine], the pKi is 7.53. For the compound `CC(C)(CO)CNc1nccc(N2CC(N)C2)n1` [Example 151, 3-{[4-(3-Aminoazetidin-1-yl)pyrimidin-2-yl]amino}-2,2-dimethylpropan-1-ol], the pKi is 5.84. Regarding `CN[C@H]1CCN(c2ccnc(NCCCO)n2)C1` [Example 152, 3-({4-[(3S)-3-(Methylamino)pyrrolidin-1-yl]pyrimidin-2-yl}amino)propan-1-ol], the pKi is 5.64. Under `CC(C)(CO)CNc1nccc(N2CC[C@@H](N)C2)n1` [Example 153, 3-({4-[(3R)-3-Aminopyrrolidin-1-yl]pyrimidin-2-yl}amino)-2,2-dimethylpropan-1-ol] stands 7.36. Under `N[C@@H]1CCN(c2ccnc(NCCCO)n2)C1` [Example 154, 3-({4-[(3R)-3-Aminopyrrolidin-1-yl]pyrimidin-2-yl}amino)propan-1-ol] stands 6.69; under `NC1CN(c2ccnc(NCCCO)n2)C1` [Example 155, 3-{[4-(3-Aminoazetidin-1-yl)pyrimidin-2-yl]amino}propan-1-ol], 6.13; under `Cc1ccc(CNc2nccc(N3CCNCC3)n2)cc1` [Example 156, N-(4-Methylbenzyl)-4-piperazin-1-ylpyrimidin-2-amine], 6.38.

`c1ccc(CNc2nccc(N3CCNCC3)n2)nc1` [Example 157, 4-Piperazin-1-yl-N-(pyridin-2-ylmethyl)pyrimidin-2-amine]: the pKi was 5.67. As for `CN[C@H]1CCN(c2ccnc(NCC(C)(C)CO)n2)C1` [Example 158, 2,2-Dimethyl-3-({4-[(3S)-3-(methylamino)pyrrolidin-1-yl]pyrimidin-2-yl}amino)propan-1-ol], the pKi was 5.46. On to `N[C@H]1CCN(c2ccnc(NC3CCCC3)n2)C1` [Example 160, 4-[(3S)-3-Aminopyrrolidin-1-yl]-N-cyclopentylpyrimidin-2-amine], for which the pKi is 7.06. With `CN1CCN(c2ccnc(NCCCO)n2)CC1` [Example 161, 3-{[4-(4-Methylpiperazin-1-yl)pyrimidin-2-yl]amino}propan-1-ol], the pKi is 5.89. Under `Cc1ccc(CNc2nccc(N3CCN(C)CC3)n2)cc1` [Example 163] stands 6.56. For the compound `CSCCNc1nccc(N2CCN(C)CC2)n1` [Example 164, 4-(4-Methylpiperazin-1-yl)-N-[2-(methylsulfanyl)ethyl]pyrimidin-2-amine], the pKi was 7.44. As for `CN1CCN(c2ccnc(NCc3ccccc3)n2)CC1` [Example 165, N-Benzyl-4-(4-methylpiperazin-1-yl)pyrimidin-2-amine], the pKi was 6.14. Under `CC(C)(CO)CNc1nccc(N2CCNCC2)n1` [Example 166, 2,2-Dimethyl-3-[(4-piperazin-1-ylpyrimidin-2-yl)amino]propan-1-ol] stands below 5.00; under `CN[C@@H]1CCN(c2ccnc(NCCCO)n2)C1` [Example 167, 3-({4-[(3R)-3-(Methylamine)pyrrolidin-1-yl]pyrimidin-2-yl}amino)propan-1-ol], 7.46; under `C[C@@H]1[C@@H](Nc2nccc(N3CCN(C)CC3)n2)C[C@H]2C[C@@H]1C2(C)C` [Example 168, 4-(4-Methylpiperazin-1-yl)-N-[(1S,2S,3S,5R)-2,6,6-trimethylbicyclo[3.1.1]hept-3-yl]pyrimidin-2-amine], 6.32. Under `CN[C@@H]1CCN(c2ccnc(NCC(C)(C)CO)n2)C1` [Example 169, 2,2-Dimethyl-3-({4-[(3R)-3-(methylamino)pyrrolidin-1-yl]pyrimidin-2-yl}amino)propan-1-ol] stands 8.01; under `CN[C@@H]1CCN(c2ccnc(NCc3ccc(C)cc3)n2)C1` [Example 170, 4-[(3R)-3-(Methylamino)pyrrolidin-1-yl]-N-(4-methylbenzyl)pyrimidin-2-amine], 6.84. As for `CNC1CN(c2ccnc(NCC(C)C)n2)C1` [Example 171, 4-[3-(Methylamino)azetidin-1-yl]-N-(2-methylpropyl)pyrimidin-2-amine], the pKi is 8.41.

On to `CNC1CN(c2ccnc(NC3CCCC3)n2)C1` [Example 172, N-Cyolopentyl-4-[3-(methylamino)azetidin-1-yl]pyrimidin-2-amine], for which the negative logarithm of the Ki (pKi) is 7.86.

As for `CN1CCN(c2ccnc(NCCc3ccccc3)n2)CC1` [Example 173, 4-(4-Methylpiperazin-1-yl)-N-(2-phenylethyl)pyrimidin-2-amine], the pKi was 6.13. Under `CN[C@@H]1CCN(c2ccnc(NCc3ccccc3)n2)C1` [Example 174, N-Benzyl-4-[(3R)-3-(methylamine)pyrrolidin-1-yl]pyrimidin-2-amine] stands 7.72.

Take `C[C@@H](Nc1nccc(N2CC[C@@H](N)C2)n1)c1ccccc1` [Example 175, 4-[(3R)-3-Aminopyrrolidin-1-yl]-N-[(1R)-1-phenylethyl]pyrimidin-2-amine]: the pKi was 6.09. Under `CN[C@@H]1CCN(c2ccnc(NCc3ccc(OC)cc3)n2)C1` [Example 176, N-(4-Methoxybenzyl)-4-[(3R)-30(methylamino)pyrrolidin-1-yl]pyrimidin-2-amine] stands 6.34; under `CC(C)(O)CNc1nccc(N2CCNCC2)n1` [Example 177, 2-Methyl-1-[(4-piperazin-1-ylpyrimidin-2-yl)amino]propan-2-ol], 6.28; under `CNC1CN(c2ccnc(NCc3ccc(F)cc3)n2)C1` [Example 178, N-(4-Fluorobenzyl)-4-[3-(methylamino)azetidin-1-yl]pyrimidin-2-amine], 6.61.
